These results are taken from PubChem BioAssay (NCI).

Where “and” joins values, the source holds several entries; their conditions need not be identical. Equal values may be shown once.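 Briefly, cells in 96-well plates were exposed to five compound concentrations for 48 h, and endpoints were estimated by linear interpolation. GI50 = concentration required for 50% inhibition of growth. TGI: concentration producing complete growth inhibition.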

Among the test systems are OVCAR-3 ovarian; KM12 colon; HL-60(TB) leukemia; SK-MEL-28 melanoma; HCC-2998 colon; TK-10 renal; SF-539 CNS; K-562 leukemia; SR leukemia; RXF 393 renal.
Holding throughout (experiment): growth of human tumour cells (NCI), 48 h

For the molecule `C[C@]12CC[C@@H]3c4ccc(O)cc4C(O)C[C@H]3[C@@H]1CCC2=O` (stereo partly drawn), the GI50 with OVCAR-3 ovarian is over 100 µM; with KM12 colon it was over 100 µM; in the assay with HL-60(TB) leukemia it was over 100 µM; with SK-MEL-28 melanoma, over 100 µM; with HCC-2998 colon, 84.2 µM; with TK-10 renal it was over 100 µM. Besides, the GI50 in the assay with SF-539 CNS, with K-562 leukemia and in the assay with SR leukemia was over 100 µM throughout. Moreover, the TGI with OVCAR-3 ovarian, with KM12 colon, in the assay with HL-60(TB) leukemia, with SK-MEL-28 melanoma, in the assay on HCC-2998 colon and with TK-10 renal was over 100 µM each time. The TGI in the assay with SF-539 CNS, in the assay with K-562 leukemia and in the assay with SR leukemia was over 100 µM each time.
Take `O=C(O)CSc1ncccc1[N+](=O)[O-]`: the TGI in the assay with OVCAR-3 ovarian, in the assay with KM12 colon, in the assay on HL-60(TB) leukemia, in the assay with SK-MEL-28 melanoma, with TK-10 renal and in the assay with RXF 393 renal was over 100 µM in each case. For the same molecule, the TGI in the assay with SF-539 CNS, in the assay on K-562 leukemia and in the assay on SR leukemia was over 100 µM throughout.
Regarding `c1cc(CNC2C3CCC(C3)C2c2c[nH]c3ccccc23)cc(CNC2C3CCC(C3)C2c2c[nH]c3ccccc23)c1` (stereo not drawn), the TGI with KM12 colon is 4.04 µM; in the assay with HL-60(TB) leukemia it was 4.21 µM; in the assay on SK-MEL-28 melanoma, 2.3 µM and 1.51 µM; with TK-10 renal it was 3.39 µM; in the assay with SF-539 CNS, 3.39 µM and 3.17 µM; in the assay with SR leukemia, 0.773 µM. Also, the GI50 with HL-60(TB) leukemia is 1.6 µM; in the assay on SK-MEL-28 melanoma, 1.01 µM and 0.343 µM; with SF-539 CNS it was 1.89 µM and 1.74 µM.
`O=C1CCC(O)=C1O`: the TGI in the assay with OVCAR-3 ovarian, in the assay with KM12 colon, in the assay on HL-60(TB) leukemia, in the assay with SK-MEL-28 melanoma, in the assay with HCC-2998 colon and with TK-10 renal was over 100 µM throughout. Besides, the TGI in the assay with RXF 393 renal, with SF-539 CNS and with K-562 leukemia was over 100 µM each time.
On to `Fc1cccc(Cl)c1/C=N\N=C1c2ccccc2-c2ccccc21`, for which the TGI in the assay with OVCAR-3 ovarian, in the assay on KM12 colon, in the assay with HL-60(TB) leukemia, in the assay on SK-MEL-28 melanoma, in the assay on TK-10 renal and in the assay with RXF 393 renal was over 100 µM each time. The TGI in the assay with SF-539 CNS, in the assay on K-562 leukemia and in the assay with SR leukemia was over 100 µM throughout.
Consider `Cc1nn(-c2ccccc2)c(-c2ccccc2[N+](=O)[O-])c1CC#N`, for which the TGI with OVCAR-3 ovarian, in the assay on KM12 colon, in the assay on HL-60(TB) leukemia, in the assay with SK-MEL-28 melanoma, with HCC-2998 colon and in the assay with TK-10 renal was over 100 µM throughout. Moreover, the TGI in the assay on RXF 393 renal, in the assay on SF-539 CNS and in the assay on K-562 leukemia was over 100 µM throughout.
Take `COC(=O)c1nc(N)[nH]c(=O)c1CCCCCc1c(C(=O)OC)nc(N)[nH]c1=O`: the TGI with OVCAR-3 ovarian, in the assay on KM12 colon, with HL-60(TB) leukemia, in the assay on SK-MEL-28 melanoma, in the assay with HCC-2998 colon and in the assay with TK-10 renal was over 50 µM throughout. For the same molecule, the TGI in the assay on RXF 393 renal, in the assay with SF-539 CNS and in the assay on K-562 leukemia was over 50 µM each time.
In the case of `COC(=O)c1c(-c2ccccc2)sc(-c2cccc3ccccc23)c1C(=O)OC`, the TGI in the assay on OVCAR-3 ovarian, in the assay with KM12 colon, in the assay on HL-60(TB) leukemia, in the assay on SK-MEL-28 melanoma, in the assay with HCC-2998 colon and in the assay on TK-10 renal was over 100 µM in each case. The TGI in the assay on RXF 393 renal, with SF-539 CNS and in the assay on K-562 leukemia was over 100 µM in each case.
As to `O=[N+]([O-])c1ccc2c(c1)[O][Sn][O]2`, the GI50 was 48.1 µg/mL with OVCAR-3 ovarian; 37.6 µg/mL with KM12 colon; 36.5 µg/mL in the assay on HL-60(TB) leukemia; 29.4 µg/mL in the assay on SK-MEL-28 melanoma; over 150 µg/mL with HCC-2998 colon; over 150 µg/mL with TK-10 renal. The GI50 with RXF 393 renal was 8.22 µg/mL; in the assay on SF-539 CNS, 50.1 µg/mL; with K-562 leukemia, 40.2 µg/mL. The TGI in the assay on OVCAR-3 ovarian, in the assay on KM12 colon, in the assay on HL-60(TB) leukemia, with SK-MEL-28 melanoma, in the assay on HCC-2998 colon and with TK-10 renal was over 150 µg/mL each time. For the same molecule, the TGI in the assay with RXF 393 renal, in the assay on SF-539 CNS and in the assay on K-562 leukemia was over 150 µg/mL each time.
On to `COC(=O)C1=C(C(=O)OC)SC(=C(Cl)C(=S)Sc2ccccc2N)S1`, for which the GI50 in the assay with OVCAR-3 ovarian was 28.1 µM; in the assay on KM12 colon, over 100 µM; with HL-60(TB) leukemia, over 100 µM; in the assay with SK-MEL-28 melanoma, over 100 µM; in the assay with TK-10 renal, 30.9 µM; with RXF 393 renal, 18.1 µM. In addition, the GI50 in the assay on SF-539 CNS is 18.3 µM; in the assay on K-562 leukemia, 68.7 µM; in the assay with SR leukemia, 52.4 µM. The TGI in the assay with OVCAR-3 ovarian was 64.6 µM; with KM12 colon, over 100 µM; in the assay on HL-60(TB) leukemia, over 100 µM; in the assay with SK-MEL-28 melanoma, over 100 µM; in the assay with TK-10 renal, 64.3 µM; with RXF 393 renal, 38 µM. Moreover, the TGI with SF-539 CNS is 42.5 µM; with K-562 leukemia, over 100 µM; with SR leukemia, over 100 µM.
For `S=c1nc(-c2cccnc2)[nH][nH]1`, the TGI in the assay with KM12 colon, in the assay with HL-60(TB) leukemia, with SK-MEL-28 melanoma, with HCC-2998 colon, with TK-10 renal and in the assay on RXF 393 renal was over 100 µM throughout. The TGI with SR leukemia is over 100 µM.
Consider `N#CC(NNC(=O)c1ccccc1O)c1cccc(O)c1` (stereo not drawn), for which the TGI in the assay with OVCAR-3 ovarian is over 100 µM; in the assay on KM12 colon it was over 100 µM; in the assay with HL-60(TB) leukemia, 73.9 µM; in the assay with SK-MEL-28 melanoma, over 100 µM; in the assay on TK-10 renal, over 100 µM; in the assay on RXF 393 renal, 85.3 µM. Also, the TGI is 18.5 µM in the assay on SF-539 CNS, over 100 µM in the assay on K-562 leukemia and over 100 µM in the assay on SR leukemia.
